Results as given in patent US12653883B2 (priority 2018, dated 2026).
Values joined by “and” are separate entries in the source; they are usually repeats but may differ in a detail not shown here. Identical values can stand only once.

What was measured:
Balb/c mice = conditions: mouse, in vivo
C57BL/6J mice = conditions: mouse, in vivo

`C[C@@H]1CCN(C(=O)CC#N)C[C@@H]1N(C)c1ncnc2[nH]ccc12` [Tofacitinib] was tested, and the “Mean antigen-specific T-cells, IFNg+ (% of CD8)” value (Balb/c mice) was 13 % of CD8 and 12.9 % of CD8 and the “Increase in luciferase expression by pretreatment” value (C57BL/6J mice) was roughly 60 fold.
